Structures can show the parent of a compound that is named as a salt. Values belong to the compound of their own block, whether it stands above or below them.
Key:
human 5-HT2A receptor = target: T1, human 5-HT2A receptor (Homo sapiens, UniProt P28223); test: Test A: binding to human recombinant 5-HT2A serotonin receptor, [3H]-ketanserin displacement; conditions: membranes from CHO-K1 cells expressing human 5-HT2A; 0.5 nM [3H]-ketanserin; 1 hour at 25° C.; read-out: 5-HT2A (pKi) (converted)
T1 construct: expressed in transfected cells
T1 sequence (P28223 whole entry): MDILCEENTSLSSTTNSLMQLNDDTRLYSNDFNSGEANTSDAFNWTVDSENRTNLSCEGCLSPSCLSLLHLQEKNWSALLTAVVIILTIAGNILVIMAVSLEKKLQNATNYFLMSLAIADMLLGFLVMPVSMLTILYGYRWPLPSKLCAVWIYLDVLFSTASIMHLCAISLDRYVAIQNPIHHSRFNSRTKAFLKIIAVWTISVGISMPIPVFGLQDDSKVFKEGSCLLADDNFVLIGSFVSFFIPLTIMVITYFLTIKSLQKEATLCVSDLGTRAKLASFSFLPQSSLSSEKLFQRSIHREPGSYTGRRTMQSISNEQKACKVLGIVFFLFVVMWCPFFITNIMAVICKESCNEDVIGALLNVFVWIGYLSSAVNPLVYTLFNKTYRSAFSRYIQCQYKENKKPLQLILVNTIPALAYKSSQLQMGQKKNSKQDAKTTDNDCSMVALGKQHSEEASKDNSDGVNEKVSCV
Protocol: In particular, binding to the human 5-HT2A serotonin receptor was performed using, as starting material, a preparation of membranes from stable recombinant CHO-K1 cell line expressing the human 5-HT2A receptor.
The non-specific binding was measured in the presence of 1 μM mianserin. The assay was conducted in Tris-HCl 50 mM buffer (pH 7.4 at 37° C.), with incubation for 1 hour at 25° C. The test compounds were dissolved in DMSO, then diluted in buffer (final DMSO concentration 0.01%) and plated on 96-well plates. The compounds were tested in duplicate in an 8-points concentration response curve (in a Log scale ranging from 10^−12 to 10^−5 M).
After incubation, the membranes were filtered on glass-fibre filters (GF/B) (Unifilter, Packard) treated with 0.5% polyethyleneimine. Then the filters were washed with buffer solution and oven-dried for 30 minutes at 45° C. The scintillation liquid was added to each well, and at least 16 hours later the radioactivity was measured for 1 minute using a TopCount (Packard).
The IC50 values for each compound were calculated using non-linear regression analysis (GraphPad PRISM software) and the inhibition constants Ki were determined using the equation described by Cheng Y. and Prussof W. H. (1973) “Relationship between the inhibition constant (Ki) and the concentration of inhibitor which causes 50 percent inhibition (I50) of an enzyme reaction.” Biochem. Pharmacol. 22: 3099-3108.

serotoninergic system = test: Test C: 5-HTP-induced head twitch test in mice; assay type: in vivo, mouse; conditions: male CD-1 mice; 5 mg/kg intraperitoneally; 5-HTP 300 mg/kg i.p. 30 min later; counted 24 to 26 minutes after 5-HTP
Protocol: The interactions of the compounds of formula (I) according to the present invention with the serotoninergic system was tested following the “head twitch” model in the mouse, according to the standard methodology described by Sztanke K., Fidecka S., Kedzierska E., Karczmarzyk Z., Pihlaja K., Matosiuk D. (2005) in “Antionociceptive activity of new imidazole carbonyl derivatives. Part 4. Synthesis and pharmacological activity of 8-aryl-3,4-dioxo-2H,8H-6,7-dihydrimidazo[2,1c][1,2,4]triazine.” Eur. J. Med. Chem. 40: 127-134, and in Corne S. J., Pickering R. W., Warner B. T. (1963) “A method for assessing the effects of drugs on the central actions of 5-hydroxytryptamine.” Br. J. Pharmacol. Chemother. 20: 106-120.
The “head twitches” are a characteristic shaking of the head induced in the animals by the increase in central levels of serotonin.
Male CD-1 mice weighing 25-30 g were used for the “head twitch” test. Molecules were suspended in a 0.5% methylcellulose aqueous solution (MTC) and the animals were treated intraperitoneally with the test compounds at the dose of 5 mg/kg (10 ml/kg body weight). The control animals received the vehicle alone (MTC) by the same route. Head twitches, considered as a specific behavioural model for the activation of serotoninergic neurons, were induced by an intraperitoneal administration of 5-hydroxytryptophan (5-HTP), a precursor of serotonin (5-HT), dissolved in a 0.5% MTC solution and given at 300 mg/kg 30 min following drug administration.
The number of head twitches, which constitutes the parameter for assessment of the serotoninergic response, was measured in the interval from 24 to 26 minutes after administration of 5-HTP.

human 5-HT2C receptor = target: T2, human 5-HT2C receptor (Homo sapiens, UniProt P28335); test: Test B: binding to human 5-HT2C serotonin receptor, [3H]-mesulergine displacement; conditions: membranes from CHO-K1 cells expressing human 5-HT2C; 1 nM [3H]-mesulergine; 1 hour at 25° C.; read-out: (h)5-HT2c (pKi) (converted)
T2 construct: expressed in transfected cells
T2 sequence (P28335 33-458): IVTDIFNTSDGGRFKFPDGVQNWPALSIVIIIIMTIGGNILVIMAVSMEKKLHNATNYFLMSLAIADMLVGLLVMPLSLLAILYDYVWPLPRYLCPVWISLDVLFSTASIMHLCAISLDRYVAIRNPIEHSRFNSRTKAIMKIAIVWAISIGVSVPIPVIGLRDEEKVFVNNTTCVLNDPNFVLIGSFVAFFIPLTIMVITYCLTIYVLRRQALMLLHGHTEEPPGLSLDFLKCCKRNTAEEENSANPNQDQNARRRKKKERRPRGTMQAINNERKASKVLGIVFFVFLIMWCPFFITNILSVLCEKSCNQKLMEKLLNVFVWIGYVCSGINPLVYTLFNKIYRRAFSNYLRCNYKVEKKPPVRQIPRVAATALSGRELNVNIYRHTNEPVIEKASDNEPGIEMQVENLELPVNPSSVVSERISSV
Protocol: 69: 1449-1458. In particular, binding to the human serotonin 5-HT2C receptor was performed using, as starting material, a preparation of membranes from stable recombinant CHO-K1 cell line expressing the human 5-HT2C receptor. […] The non-specific binding was measured in the presence of 1 μM mianserin. The assay was conducted in Tris-HCl 50 mM buffer (pH 7.4 at 37° C.), 0.1% Ascorbic Acid, 10 μM Pargyline, with incubation for 1 hour at 25° C. The test compounds were dissolved in DMSO, then diluted in buffer (final DMSO concentration 0.01%) and plated on 96-well plates The compounds were tested in duplicate in an 8-points concentration response curve (in a Log scale ranging from 10^−12 to 10^−5 M). SB 242084 was used as reference compound. […] Then the filters were washed with buffer solution and oven-dried for 30 minutes at 45° C. The scintillation liquid was added to each well, and at least 16 hours later the radioactivity was measured for 1 minute using a TopCount (Packard). The IC50 values for each compound were calculated using non-linear regression analysis (GraphPad PRISM software) and the inhibition constants Ki were determined using the equation described by Cheng Y. and Prussof W. H. […] Pharmacol. 22: 3099-3108.

Structure (SMILES): Cl.O=C1c2c3ccccc3nn2CCN1CC1CCN(CCc2ccc(F)cc2)CC1 [Compound 1, 2-({1-[2-(4-fluorophenyl)ethyl]piperidin-4-yl}methyl)-3,4-dihydropyrazino[1,2-b]indazol-1(2H)-one hydrochloride]
Ki (human 5-HT2A receptor): 19.5 nM
% INHIBITION (number of head twitches vs vehicle treated group) (serotoninergic system): 50%
Ki (human 5-HT2C receptor): 1700 nM

Structure (SMILES): O=C1c2c3ccccc3nn2CCN1CC1CCCN(CCc2ccc(F)cc2)C1 (stereo not shown) [Compound 2, 2-({1-[2-(4-fluorophenyl)ethyl]piperidin-3-yl}methyl)-3,4-dihydropyrazino[1,2-b]indazol-1(2H)-one]
Ki (human 5-HT2A receptor): 1150 nM

Structure (SMILES): O=C1c2c3ccccc3nn2CCN1CC1CCCN(CCc2ccccc2F)C1 (stereo not shown) [Compound 5, 2-({1-[2-(2-fluorophenyl)ethyl]piperidin-3-yl}methyl)-3,4-dihydropyrazino[1,2-b]indazol-1(2H)-one hydrochloride]
Ki (human 5-HT2A receptor): 692 nM

Structure (SMILES): O=C1c2c3ccccc3nn2CCCN1CC1CCCN(CCc2ccc(F)cc2)C1 (stereo not shown) [Compound 10, 2-({1-[2-(4-fluorophenyl)ethyl]piperidin-3-yl}methyl)-2,3,4,5-tetrahydro-1H-[1,4]diazepino[1,2-b]indazol-1-one dihydrochloride]
Ki (human 5-HT2A receptor): 275 nM

Structure (SMILES): Cl.O=C1c2c3ccccc3nn2CCCN1CC1CCN(CCc2ccc(F)cc2)CC1 [Compound 16, 2-({1-[2-(4-fluorophenyl)ethyl]piperidin-4-yl}methyl)-2,3,4,5-tetrahydro-1H-[1,4]diazepino[1,2-b]indazol-1-one hydrochloride]
Ki (human 5-HT2A receptor): 7.24 nM
% INHIBITION (number of head twitches vs vehicle treated group) (serotoninergic system): 56%
Ki (human 5-HT2C receptor): > 10000 nM

Structure (SMILES): O=C1c2c3c(nn2CCN1CC1CCN(CCc2ccc(F)cc2)CC1)CCCC3 [Compound 17, 2-({1-[2-(4-fluorophenyl)ethyl]piperidin-4-yl}methyl)-3,4,7,8,9,10-esahydropyrazino[1,2-b]indazol-1(2H)-one hydrochloride]
Ki (human 5-HT2A receptor): 29.5 nM
% INHIBITION (number of head twitches vs vehicle treated group) (serotoninergic system): 32%
Ki (human 5-HT2C receptor): 7410 nM

Structure (SMILES): O=C1c2c3ccccc3nn2CCN1CCCN1CCC(c2ccccc2)CC1 [Compound 28, 2-[3-(4-phenylpiperidin-1-yl)propyl]-3,4-dihydropyrazino[1,2-b]indazol-1(2H)-one hydrochloride]
Ki (human 5-HT2A receptor): 74.1 nM
Ki (human 5-HT2C receptor): > 10000 nM

Structure (SMILES): Cc1cc2c(cc1Cl)N(C(=O)Nc1ccc(Oc3cccnc3C)nc1)CC2 [SB 242084, reference compound]
Ki (human 5-HT2C receptor): 0.468 nM

More lines, main results first:

Ki (human 5-HT2A receptor): 1.82 nM
Structure (SMILES): O=C1c2c3ccccc3nn2CCN1CC1CCN(CCc2ccccc2F)CC1 [Compound 8, 2-({1-[2-(2-fluorophenyl)ethyl]piperidin-4-yl}methyl)-3,4-dihydropyrazino[1,2-b]indazol-1(2H)-one]
% INHIBITION (number of head twitches vs vehicle treated group) (serotoninergic system): 70%

Ki (human 5-HT2A receptor): 257 nM
Structure (SMILES): O=C1c2c3ccccc3nn2CCCN1CC1CCCN(CCc2ccccc2F)C1 (stereo not shown) [Compound 13, 2-({1-[2-(2-fluorophenyl)ethyl]piperidin-3-yl}methyl)-2,3,4,5-tetrahydro-1H-[1,4]diazepino[1,2-b]indazol-1-one dihydrochloride]

Ki (human 5-HT2A receptor): 16.6 nM
Structure (SMILES): O=C1c2c3ccccc3nn2CCN1CC1CCN(CCc2ccccc2)CC1 [Compound 20, 2-[(1-phenethylpiperidin-4-yl)methyl]-3,4-dihydropyrazino[1,2-b]indazol-1(2H)-one hydrochloride]

Ki (human 5-HT2A receptor): 20.9 nM
Structure (SMILES): O=C1c2c3ccccc3nn2CCCN1CC1CCN(CCc2ccccc2)CC1 [Compound 22, 2-[(1-phenethylpiperidin-4-yl)methyl]-2,3,4,5-tetrahydro-1H-[1,4]diazepino[1,2-b]indazol-1-one]

Ki (human 5-HT2A receptor): 45.7 nM
Ki (human 5-HT2C receptor): > 10000 nM
Structure (SMILES): O=C1c2c3ccccc3nn2CCCN1CCCN1CCC(c2ccccc2)CC1 [Compound 31, 2-[3-(4-phenylpiperidin-1-yl)propyl]-2,3,4,5-tetrahydro-1H-[1,4]diazepino[1,2-b]indazol-1-one hydrochloride]

Source: patent publication US9655906B2, “Tricyclic indazole compound, method of preparation and pharmaceutical composition containing it” (AZIENDE CHIMICHE RIUNITE ANGELINI FRANCESCO A.C.R.A.F S.p.A., priority 2010, dated 2017)
